Measured values published in patent publication US12679878B2, “CRF2 receptor agonists and their use in therapy” (SANOFI, priority 2020, dated 2026).
Read-outs that look alike come from different tables or passages of the source. Starred links: 1 amine or outer side, 2 acyl side, 3 side chain; linkers in the order of their positions; H or OH if unused. Non-standard residues stand in square brackets, D forms with d. Residues, ends and D or L forms follow the SMILES beside them. Groups on a side chain read outwards from the residue. *: point of attachment. C20 diacid = O=C(O)CCCCCCCCCCCCCCCCCCC(=O)*; C18 diacid = O=C(O)CCCCCCCCCCCCCCCCC(=O)*; γGlu = O=C(O)[C@H](CCC(=O)[*:2])N[*:1]; AEEA = NCCOCCOCC(=O)O; Aib = CC(C)(N)C(=O)O

Target: T1, human CRF2α receptor (Homo sapiens, UniProt Q13324)
T1 construct: expressed in transfected cells; host or cells: TeloHEAC
T1 sequence (Q13324 1-411): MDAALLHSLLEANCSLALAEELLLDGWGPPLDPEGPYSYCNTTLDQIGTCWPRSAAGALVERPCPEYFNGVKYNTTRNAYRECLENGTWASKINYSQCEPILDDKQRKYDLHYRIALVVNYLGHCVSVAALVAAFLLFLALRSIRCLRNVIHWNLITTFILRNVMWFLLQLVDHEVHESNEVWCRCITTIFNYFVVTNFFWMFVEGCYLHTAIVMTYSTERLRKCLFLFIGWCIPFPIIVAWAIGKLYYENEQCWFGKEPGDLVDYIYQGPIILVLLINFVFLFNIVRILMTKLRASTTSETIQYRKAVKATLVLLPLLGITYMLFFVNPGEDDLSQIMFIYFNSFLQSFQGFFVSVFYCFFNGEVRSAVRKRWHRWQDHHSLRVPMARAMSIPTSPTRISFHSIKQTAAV
Assay: cAMP agonism at human CRF2 α receptor in TeloHEAC cells (Example 7)
Type: cell-based
Conditions: cAMP HTRF, TeloHEAC cells stably expressing human CRF2 α
Method in brief: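 HTRF ratio 665/620 nm, read 1 h after lysis reagents, reports cAMP. Cells: thawed stocks, 2000/well, 30 min RT with compound in HBSS, 20 mM HEPES, 0 or 0.1% HSA, 2 mM IBMX. Activity normalised to UCN2 1000 nM = 100%; EC50 from half-maximal activation.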

[1] = 0% HSA, read-out: EC50 [nM], 0% HSA
[2] = 0.1% HSA, read-out: EC50 [nM], 0.1% HSA

SMILES	EC50 [1] [nM]	EC50 [2] [nM]
CC[C@H](C)[C@H](N)C(=O)N[C@H](C(=O)N[C@@H](CC(C)C)C(=O)N[C@@H](CO)C(=O)N[C@@H](CC(C)C)C(=O)N[C@@H](CC(=O)O)C(=O)N[C@H](C(=O)N1CCC[C@H]1C(=O)N[C@H](C(=O)NCC(=O)N[C@@H](CC(C)C)C(=O)N[C@@H](CCCCNC(=O)COCCOCCNC(=O)COCCOCCNC(=O)CC[C@H](NC(=O)CCCCCCCCCCCCCCCCC(=O)O)C(=O)O)C(=O)N[C@@H](CCC(N)=O)C(=O)N[C@H](C(=O)N[C@@H](CC(C)C)C(=O)N[C@@H](CC(C)C)C(=O)N[C@@H](CCC(=O)O)C(=O)N[C@@H](CCC(N)=O)C(=O)N[C@@H](CCC(=O)O)C(=O)N[C@@H](CCCCN)C(=O)N[C@@H](CCC(N)=O)C(=O)N[C@@H](CCC(=O)O)C(=O)N[C@@H](CCCCN)C(=O)N[C@@H](CCC(=O)O)C(=O)N[C@@H](CCCCN)C(=O)N[C@@H](CCC(N)=O)C(=O)N[C@@H](CCC(N)=O)C(=O)N[C@@H](C)C(=O)N[C@@H](CCC(=O)O)C(=O)N[C@H](C(=O)N[C@@H](CC(N)=O)C(=O)N[C@@H](CCCCN)C(=O)N[C@@H](CCCNC(=N)N)C(=O)N[C@H](C(=O)N[C@@H](CC(C)C)C(=O)N[C@@H](CCC(=O)O)C(=O)N[C@@H](CCCNC(=N)N)C(=O)N[C@H](C(N)=O)C(C)C)[C@@H](C)CC)[C@@H](C)O)[C@@H](C)CC)[C@@H](C)CC)C(C)C)C(C)C [compound 154] (H-IVLSLDVPIGLK([AEEA-AEEA-γGlu-C18 diacid])QILLEQEKQEKEKQQAETNKRILERV-NH2; N-terminus assumed)	15	15.3
CC[C@H](C)[C@H](N)C(=O)N[C@H](C(=O)N[C@@H](CC(C)C)C(=O)N[C@@H](CO)C(=O)N[C@@H](CC(C)C)C(=O)N[C@@H](CC(=O)O)C(=O)N[C@H](C(=O)N1CCC[C@H]1C(=O)N[C@H](C(=O)NCC(=O)N[C@@H](CC(C)C)C(=O)N[C@@H](CCCCNC(=O)COCCOCCNC(=O)COCCOCCNC(=O)CC[C@H](NC(=O)CCCCCCCCCCCCCCCCC(=O)O)C(=O)O)C(=O)N[C@@H](CCC(N)=O)C(=O)N[C@H](C(=O)N[C@@H](CC(C)C)C(=O)N[C@@H](CC(C)C)C(=O)N[C@@H](CCC(=O)O)C(=O)N[C@@H](CCC(N)=O)C(=O)N[C@@H](CCC(=O)O)C(=O)N[C@@H](CCCCN)C(=O)N[C@@H](CCC(N)=O)C(=O)N[C@@H](CCC(=O)O)C(=O)N[C@@H](CCCCN)C(=O)N[C@@H](CCC(=O)O)C(=O)N[C@@H](CCCCN)C(=O)N[C@@H](CCC(N)=O)C(=O)N[C@@H](CCC(N)=O)C(=O)N[C@@H](C)C(=O)N[C@@H](CCC(=O)O)C(=O)N[C@@H](CCCCN)C(=O)N[C@@H](CC(N)=O)C(=O)N[C@@H](CCCCN)C(=O)N[C@@H](CCCNC(=N)N)C(=O)N[C@H](C(=O)N[C@@H](CC(C)C)C(=O)N[C@@H](CCC(=O)O)C(=O)N[C@@H](CCCNC(=N)N)C(=O)N[C@H](C(N)=O)C(C)C)[C@@H](C)CC)[C@@H](C)CC)[C@@H](C)CC)C(C)C)C(C)C [compound 155] (H-IVLSLDVPIGLK([AEEA-AEEA-γGlu-C18 diacid])QILLEQEKQEKEKQQAEKNKRILERV-NH2)	8.87	–
CC[C@H](C)[C@H](N)C(=O)N[C@H](C(=O)N[C@@H](CC(C)C)C(=O)N[C@@H](CO)C(=O)N[C@@H](CC(C)C)C(=O)N[C@@H](CC(=O)O)C(=O)N[C@@H](C(=O)N1CCC[C@H]1C(=O)N[C@H](C(=O)N[C@@H](CCCCN)C(=O)N[C@@H](CC(C)C)C(=O)N[C@@H](CCCCNC(=O)COCCOCCNC(=O)COCCOCCNC(=O)CC[C@H](NC(=O)CCCCCCCCCCCCCCCCCCC(=O)O)C(=O)O)C(=O)N[C@@H](CCC(N)=O)C(=O)N[C@H](C(=O)N[C@@H](CC(C)C)C(=O)N[C@@H](CC(C)C)C(=O)N[C@@H](CCCCN)C(=O)N[C@@H](CCC(N)=O)C(=O)N[C@@H](C)C(=O)N[C@@H](CCCNC(=N)N)C(=O)N[C@@H](CCC(N)=O)C(=O)N[C@@H](CCCCN)C(=O)NC(C)(C)C(=O)N[C@@H](CCC(N)=O)C(=O)N[C@@H](CCCNC(=N)N)C(=O)N[C@@H](C)C(=O)N[C@@H](CCC(N)=O)C(=O)N[C@@H](C)C(=O)N[C@@H](CCC(=O)O)C(=O)N[C@@H](CCCCN)C(=O)N[C@@H](CC(N)=O)C(=O)N[C@@H](CCCCN)C(=O)N[C@@H](CCCNC(=N)N)C(=O)N[C@H](C(=O)N[C@@H](CC(C)C)C(=O)N[C@@H](CCC(=O)O)C(=O)N[C@@H](CCCNC(=N)N)C(=O)N[C@H](C(N)=O)C(C)C)[C@@H](C)CC)[C@@H](C)CC)[C@@H](C)CC)C(C)C)C(C)C [compound 175] (H-IVLSLD[dV]PIKLK([AEEA-AEEA-γGlu-C20 diacid])QILLKQARQK[Aib]QRAQAEKNKRILERV-NH2; N-terminus assumed)	0.06	3.64
CC[C@H](C)[C@H](N)C(=O)N[C@H](C(=O)N[C@@H](CC(C)C)C(=O)N[C@@H](CO)C(=O)N[C@@H](CC(C)C)C(=O)N[C@@H](CC(=O)O)C(=O)N[C@@H](C(=O)N1CCC[C@H]1C(=O)N[C@H](C(=O)N[C@@H](CCCCN)C(=O)N[C@@H](CC(C)C)C(=O)N[C@@H](CCCCNC(=O)COCCOCCNC(=O)COCCOCCNC(=O)CC[C@H](NC(=O)CC[C@H](NC(=O)CCCCCCCCCCCCCCCCC(=O)O)C(=O)O)C(=O)O)C(=O)N[C@@H](CCC(N)=O)C(=O)N[C@H](C(=O)N[C@@H](CC(C)C)C(=O)N[C@@H](CC(C)C)C(=O)N[C@@H](CCCCN)C(=O)N[C@@H](CCC(N)=O)C(=O)N[C@@H](CCC(=O)O)C(=O)N[C@@H](CCCNC(=N)N)C(=O)N[C@@H](CCC(N)=O)C(=O)N[C@@H](CCCCN)C(=O)N[C@@H](CCCCN)C(=O)N[C@@H](CCC(N)=O)C(=O)N[C@@H](CCCNC(=N)N)C(=O)N[C@@H](CCC(N)=O)C(=O)N[C@@H](CCC(N)=O)C(=O)N[C@@H](C)C(=O)N[C@@H](CCC(=O)O)C(=O)N[C@@H](CCCCN)C(=O)N[C@@H](CC(N)=O)C(=O)N[C@@H](CCCCN)C(=O)N[C@@H](CCC(N)=O)C(=O)N[C@H](C(=O)N[C@@H](CC(C)C)C(=O)N[C@@H](C)C(=O)N[C@@H](CCC(N)=O)C(=O)N[C@H](C(N)=O)C(C)C)[C@@H](C)CC)[C@@H](C)CC)[C@@H](C)CC)C(C)C)C(C)C [compound 176] (H-IVLSLD[dV]PIKLK([AEEA-AEEA-γGlu-γGlu-C18 diacid])QILLKQERQKKQRQQAEKNKQILAQV-NH2; N-terminus assumed)	0.11	3.05
CC[C@H](C)[C@H](N)C(=O)N[C@H](C(=O)N[C@@H](CC(C)C)C(=O)N[C@@H](CO)C(=O)N[C@@H](CC(C)C)C(=O)N[C@@H](CC(=O)O)C(=O)N[C@@H](C(=O)N1CCC[C@H]1C(=O)N[C@H](C(=O)N[C@@H](CCCCN)C(=O)N[C@@H](CC(C)C)C(=O)N[C@@H](CCCCNC(=O)COCCOCCNC(=O)COCCOCCNC(=O)CC[C@H](NC(=O)CC[C@H](NC(=O)CCCCCCCCCCCCCCCCCCC(=O)O)C(=O)O)C(=O)O)C(=O)N[C@@H](CCC(N)=O)C(=O)N[C@H](C(=O)N[C@@H](CC(C)C)C(=O)N[C@@H](CC(C)C)C(=O)N[C@@H](CCCCN)C(=O)N[C@@H](CCC(N)=O)C(=O)N[C@@H](CCC(=O)O)C(=O)N[C@@H](CCCNC(=N)N)C(=O)N[C@@H](CCC(N)=O)C(=O)N[C@@H](CCCCN)C(=O)N[C@@H](CCCCN)C(=O)N[C@@H](CCC(N)=O)C(=O)N[C@@H](CCCNC(=N)N)C(=O)N[C@@H](CCC(N)=O)C(=O)N[C@@H](CCC(N)=O)C(=O)N[C@@H](C)C(=O)N[C@@H](CCC(=O)O)C(=O)N[C@@H](CCCCN)C(=O)N[C@@H](CC(N)=O)C(=O)N[C@@H](CCCCN)C(=O)N[C@@H](CCC(N)=O)C(=O)N[C@H](C(=O)N[C@@H](CC(C)C)C(=O)N[C@@H](C)C(=O)N[C@@H](CCC(N)=O)C(=O)N[C@H](C(N)=O)C(C)C)[C@@H](C)CC)[C@@H](C)CC)[C@@H](C)CC)C(C)C)C(C)C [compound 177] (H-IVLSLD[dV]PIKLK([AEEA-AEEA-γGlu-γGlu-C20 diacid])QILLKQERQKKQRQQAEKNKQILAQV-NH2)	0.07	5.19
CC[C@H](C)[C@H](N)C(=O)N[C@H](C(=O)N[C@@H](CC(C)C)C(=O)N[C@@H](CO)C(=O)N[C@@H](CC(C)C)C(=O)N[C@@H](CC(=O)O)C(=O)N[C@@H](C(=O)N1CCC[C@H]1C(=O)N[C@H](C(=O)N[C@@H](CCCCN)C(=O)N[C@@H](CC(C)C)C(=O)N[C@@H](CCCCNC(=O)COCCOCCNC(=O)COCCOCCNC(=O)CC[C@H](NC(=O)CCCCCCCCCCCCCCCCCCC(=O)O)C(=O)O)C(=O)N[C@@H](CCC(N)=O)C(=O)N[C@H](C(=O)N[C@@H](CC(C)C)C(=O)N[C@@H](CC(C)C)C(=O)N[C@@H](CCCCN)C(=O)N[C@@H](CCC(N)=O)C(=O)N[C@@H](CCC(=O)O)C(=O)N[C@@H](CCCNC(=N)N)C(=O)N[C@@H](CCC(N)=O)C(=O)N[C@@H](CCCCN)C(=O)N[C@@H](CCCCN)C(=O)N[C@@H](CCC(N)=O)C(=O)N[C@@H](CCCNC(=N)N)C(=O)N[C@@H](CCC(N)=O)C(=O)N[C@@H](CCC(N)=O)C(=O)N[C@@H](C)C(=O)N[C@@H](CCC(=O)O)C(=O)N[C@@H](CCCCN)C(=O)N[C@@H](CC(N)=O)C(=O)N[C@@H](CCCCN)C(=O)N[C@@H](CCC(N)=O)C(=O)N[C@H](C(=O)N[C@@H](CC(C)C)C(=O)N[C@@H](C)C(=O)N[C@@H](CCC(N)=O)C(=O)N[C@H](C(N)=O)C(C)C)[C@@H](C)CC)[C@@H](C)CC)[C@@H](C)CC)C(C)C)C(C)C [compound 178] (H-IVLSLD[dV]PIKLK([AEEA-AEEA-γGlu-C20 diacid])QILLKQERQKKQRQQAEKNKQILAQV-NH2; N-terminus assumed)	0.04	3.77
